Measured values reported in patent publication US11274100B2, “EP300/CREBBP inhibitor” (Daiichi Sankyo Company, Limited, priority 2017, dated 2022).

Experiments:
H3K27Ac = assay: Intracellular H3K27Ac inhibitory activity in LK2 cells (Test Example 2); type: cell-based; conditions: Homo sapiens, LK-2, cultured with compound for 3 hours, read-out: Test Example 2 H3K27Ac Inhibition (LK2) IC50
Description: [Test Example 2] Evaluation of Intracellular H3K27Ac Inhibitory Activity
LK2 cells derived from human squamous cell lung cancer were seeded in a 96 well plate at 40000 cells/100 μL/well, and were cultured overnight at 37° C. in 5% CO2. The LK2 cells were purchased from Human Science Research Resources Bank. […] The supernatant was discarded, 4% paraformaldehyde was added thereto at 100 μL/well, and the resultant was allowed to stand still at room temperature for 15 minutes. The 4% paraformaldehyde was discarded, and the resultant was washed with PBS-T. A quenching buffer (PBS-T containing 1% H2O2) was added thereto at of 100 μL/well, and the resultant was allowed to stand still at room temperature for 10 minutes. The resultant was washed with PBS-T, a blocking buffer (StartingBlocK T20 (TBS) Blocking Buffer (Thermo […], #37543)) was added thereto at 200 μL/well, and the resultant was allowed to stand still at room temperature for 1 hour. The supernatant was discarded, Acetyl-Histone H3 (Lys27) (D5E4) XP (registered trademark) Rabbit mAb (cell Signaling, #8173) diluted with a blocking buffer was added thereto at 50 μL/well, and the resultant was allowed to stand still at 4° C. overnight. The resultant was washed with PBS-T, Anti-Rabbit IgG-HRP (Cell Signaling, #7074S) diluted with a blocking buffer was added thereto at 50 μL/well, and the resultant was cultured at room temperature for 1 hour. The resultant was washed with PBS-T, SuperSignal (registered trademark) ELISA Pico Chemiluminescent Substrate (Thermo […], #37069) was added thereto at 50 μL/well, and a signal was measured using EnVision.

CREBBP = CREBBP (Homo sapiens, UniProt Q92793); assay: Histone acetyltransferase inhibitory activity against CREBBP (Test Example 1); type: biochemical; conditions: 125 ng/mL CREBBP, 2 μM Acetyl-CoA, 100 nM Histone H4(1-25)-GSGSK (Biotin), 28° C. for 1 hour
Description: (§1) [Test Example 1] Evaluation of Histone
(§2) Acetyltransferase Inhibitory Activity against EP300 and CREBBP
(§3) 10 μL each of reaction solutions each containing a different concentration of the compound of each of Examples 1 to 108b (50 mM Tris-HCl (pH8.0), 0.1 mM EDTA, 1 mM dithiothreitol, 0.01% Tween-20, 0.01% Bovine serum albumin, 330 nM trichostatin A, 2 μM Acetyl-CoA (Sigma-Aldrich, #A2056), 100 nM Histone H4(1-25)-GSGSK (Biotin) (Anaspec, #65242-1), 1% dimethyl sulfoxide, 10 to 0.0006 μM of each compound, 50 ng/mL EP300 or 125 ng/mL CREBBP) was added to respective wells of a 384-well plate, and cultured at 28° C. for 1 hour. Thereafter, 5 μL of 30 μM Lys-CoA (Daiichi Sankyo Co., Ltd.) dissolved in LANCE detection buffer (Perkin Elmer Co., Ltd., #CR97-100) was added to each well. Furthermore, 5 μL of LANCE detection buffer containing 2 nM Eu-anti pan-Ac (Perkin Elmer Co., Ltd., #TRF0412) and 50 nM Sta-Ulight (Perkin Elmer Co., Ltd., #TRF0102) was added to each well, and the resultant was cultured at room temperature overnight. EnVision (Perkin Elmer Co., Ltd., Model 2104-0020) was used to measure ULight signals. […] EP300 and CREBBP were produced and purified by Daiichi Sankyo RD Novare Co., Ltd.

EP300 = EP300 (Homo sapiens, UniProt Q09472); assay: Histone acetyltransferase inhibitory activity against EP300 (Test Example 1); type: biochemical; conditions: 50 ng/mL EP300, 2 μM Acetyl-CoA, 100 nM Histone H4(1-25)-GSGSK (Biotin), 28° C. for 1 hour
Description: as §1, §2, §3

Sequence of EP300 (Q09472 whole entry): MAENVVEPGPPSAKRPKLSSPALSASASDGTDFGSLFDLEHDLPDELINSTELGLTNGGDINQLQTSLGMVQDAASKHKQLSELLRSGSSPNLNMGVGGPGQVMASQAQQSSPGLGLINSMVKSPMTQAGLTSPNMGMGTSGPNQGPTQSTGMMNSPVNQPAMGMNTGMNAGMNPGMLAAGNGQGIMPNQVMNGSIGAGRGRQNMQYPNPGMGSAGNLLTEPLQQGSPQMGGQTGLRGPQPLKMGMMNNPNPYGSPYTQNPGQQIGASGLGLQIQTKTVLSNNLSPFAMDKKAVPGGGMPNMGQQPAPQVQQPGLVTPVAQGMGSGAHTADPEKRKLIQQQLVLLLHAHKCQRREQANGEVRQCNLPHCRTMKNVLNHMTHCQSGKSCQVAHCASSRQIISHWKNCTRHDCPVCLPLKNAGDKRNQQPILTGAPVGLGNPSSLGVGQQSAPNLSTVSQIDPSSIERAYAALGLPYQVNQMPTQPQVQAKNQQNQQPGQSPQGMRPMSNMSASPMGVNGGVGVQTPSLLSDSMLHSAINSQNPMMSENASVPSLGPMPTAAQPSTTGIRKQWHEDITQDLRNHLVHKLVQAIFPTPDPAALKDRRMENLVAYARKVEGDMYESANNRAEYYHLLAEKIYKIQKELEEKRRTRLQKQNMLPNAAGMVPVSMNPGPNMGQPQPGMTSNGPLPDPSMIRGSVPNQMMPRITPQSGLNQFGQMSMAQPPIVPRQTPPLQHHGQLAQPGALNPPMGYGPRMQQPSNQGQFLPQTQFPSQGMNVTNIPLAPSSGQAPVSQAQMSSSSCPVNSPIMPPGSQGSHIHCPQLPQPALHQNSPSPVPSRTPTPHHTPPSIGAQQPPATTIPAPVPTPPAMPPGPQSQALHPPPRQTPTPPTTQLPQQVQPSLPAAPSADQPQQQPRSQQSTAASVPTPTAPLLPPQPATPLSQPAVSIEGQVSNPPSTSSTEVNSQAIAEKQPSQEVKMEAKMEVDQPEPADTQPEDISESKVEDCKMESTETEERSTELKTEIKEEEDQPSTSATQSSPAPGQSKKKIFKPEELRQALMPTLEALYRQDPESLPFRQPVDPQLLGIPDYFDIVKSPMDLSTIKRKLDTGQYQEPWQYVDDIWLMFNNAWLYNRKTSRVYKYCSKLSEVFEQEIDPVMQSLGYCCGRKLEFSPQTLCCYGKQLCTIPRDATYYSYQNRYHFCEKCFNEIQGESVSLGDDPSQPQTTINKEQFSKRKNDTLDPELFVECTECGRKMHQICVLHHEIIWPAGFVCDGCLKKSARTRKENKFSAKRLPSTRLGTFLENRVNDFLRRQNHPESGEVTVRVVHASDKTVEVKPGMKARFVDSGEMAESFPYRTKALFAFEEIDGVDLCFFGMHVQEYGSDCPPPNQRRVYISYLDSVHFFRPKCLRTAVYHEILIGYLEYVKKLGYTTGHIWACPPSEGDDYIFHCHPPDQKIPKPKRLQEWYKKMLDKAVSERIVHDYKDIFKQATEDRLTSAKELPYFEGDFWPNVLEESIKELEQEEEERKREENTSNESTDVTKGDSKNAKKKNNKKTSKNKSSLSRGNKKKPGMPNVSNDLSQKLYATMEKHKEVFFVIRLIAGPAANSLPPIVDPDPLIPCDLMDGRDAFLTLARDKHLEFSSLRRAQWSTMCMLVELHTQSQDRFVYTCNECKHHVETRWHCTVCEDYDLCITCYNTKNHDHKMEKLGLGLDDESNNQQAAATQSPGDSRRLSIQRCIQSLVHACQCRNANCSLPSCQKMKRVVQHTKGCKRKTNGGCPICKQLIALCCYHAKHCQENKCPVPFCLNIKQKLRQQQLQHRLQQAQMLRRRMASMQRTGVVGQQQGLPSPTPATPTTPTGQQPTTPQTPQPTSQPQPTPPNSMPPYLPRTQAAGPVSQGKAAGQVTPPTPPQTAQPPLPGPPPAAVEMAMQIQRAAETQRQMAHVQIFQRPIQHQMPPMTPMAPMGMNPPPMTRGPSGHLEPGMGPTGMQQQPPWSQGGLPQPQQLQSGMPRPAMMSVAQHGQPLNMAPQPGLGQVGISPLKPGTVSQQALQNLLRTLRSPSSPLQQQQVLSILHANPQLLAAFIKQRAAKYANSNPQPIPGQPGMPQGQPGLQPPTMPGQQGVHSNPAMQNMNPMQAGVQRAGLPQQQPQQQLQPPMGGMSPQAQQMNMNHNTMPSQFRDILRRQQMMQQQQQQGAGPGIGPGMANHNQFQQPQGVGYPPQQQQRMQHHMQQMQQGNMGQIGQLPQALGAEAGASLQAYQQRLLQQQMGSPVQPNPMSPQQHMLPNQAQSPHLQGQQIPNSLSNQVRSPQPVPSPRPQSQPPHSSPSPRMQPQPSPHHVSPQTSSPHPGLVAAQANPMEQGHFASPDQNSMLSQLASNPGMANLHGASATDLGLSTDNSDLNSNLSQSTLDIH
Sequence of CREBBP (Q92793 whole entry): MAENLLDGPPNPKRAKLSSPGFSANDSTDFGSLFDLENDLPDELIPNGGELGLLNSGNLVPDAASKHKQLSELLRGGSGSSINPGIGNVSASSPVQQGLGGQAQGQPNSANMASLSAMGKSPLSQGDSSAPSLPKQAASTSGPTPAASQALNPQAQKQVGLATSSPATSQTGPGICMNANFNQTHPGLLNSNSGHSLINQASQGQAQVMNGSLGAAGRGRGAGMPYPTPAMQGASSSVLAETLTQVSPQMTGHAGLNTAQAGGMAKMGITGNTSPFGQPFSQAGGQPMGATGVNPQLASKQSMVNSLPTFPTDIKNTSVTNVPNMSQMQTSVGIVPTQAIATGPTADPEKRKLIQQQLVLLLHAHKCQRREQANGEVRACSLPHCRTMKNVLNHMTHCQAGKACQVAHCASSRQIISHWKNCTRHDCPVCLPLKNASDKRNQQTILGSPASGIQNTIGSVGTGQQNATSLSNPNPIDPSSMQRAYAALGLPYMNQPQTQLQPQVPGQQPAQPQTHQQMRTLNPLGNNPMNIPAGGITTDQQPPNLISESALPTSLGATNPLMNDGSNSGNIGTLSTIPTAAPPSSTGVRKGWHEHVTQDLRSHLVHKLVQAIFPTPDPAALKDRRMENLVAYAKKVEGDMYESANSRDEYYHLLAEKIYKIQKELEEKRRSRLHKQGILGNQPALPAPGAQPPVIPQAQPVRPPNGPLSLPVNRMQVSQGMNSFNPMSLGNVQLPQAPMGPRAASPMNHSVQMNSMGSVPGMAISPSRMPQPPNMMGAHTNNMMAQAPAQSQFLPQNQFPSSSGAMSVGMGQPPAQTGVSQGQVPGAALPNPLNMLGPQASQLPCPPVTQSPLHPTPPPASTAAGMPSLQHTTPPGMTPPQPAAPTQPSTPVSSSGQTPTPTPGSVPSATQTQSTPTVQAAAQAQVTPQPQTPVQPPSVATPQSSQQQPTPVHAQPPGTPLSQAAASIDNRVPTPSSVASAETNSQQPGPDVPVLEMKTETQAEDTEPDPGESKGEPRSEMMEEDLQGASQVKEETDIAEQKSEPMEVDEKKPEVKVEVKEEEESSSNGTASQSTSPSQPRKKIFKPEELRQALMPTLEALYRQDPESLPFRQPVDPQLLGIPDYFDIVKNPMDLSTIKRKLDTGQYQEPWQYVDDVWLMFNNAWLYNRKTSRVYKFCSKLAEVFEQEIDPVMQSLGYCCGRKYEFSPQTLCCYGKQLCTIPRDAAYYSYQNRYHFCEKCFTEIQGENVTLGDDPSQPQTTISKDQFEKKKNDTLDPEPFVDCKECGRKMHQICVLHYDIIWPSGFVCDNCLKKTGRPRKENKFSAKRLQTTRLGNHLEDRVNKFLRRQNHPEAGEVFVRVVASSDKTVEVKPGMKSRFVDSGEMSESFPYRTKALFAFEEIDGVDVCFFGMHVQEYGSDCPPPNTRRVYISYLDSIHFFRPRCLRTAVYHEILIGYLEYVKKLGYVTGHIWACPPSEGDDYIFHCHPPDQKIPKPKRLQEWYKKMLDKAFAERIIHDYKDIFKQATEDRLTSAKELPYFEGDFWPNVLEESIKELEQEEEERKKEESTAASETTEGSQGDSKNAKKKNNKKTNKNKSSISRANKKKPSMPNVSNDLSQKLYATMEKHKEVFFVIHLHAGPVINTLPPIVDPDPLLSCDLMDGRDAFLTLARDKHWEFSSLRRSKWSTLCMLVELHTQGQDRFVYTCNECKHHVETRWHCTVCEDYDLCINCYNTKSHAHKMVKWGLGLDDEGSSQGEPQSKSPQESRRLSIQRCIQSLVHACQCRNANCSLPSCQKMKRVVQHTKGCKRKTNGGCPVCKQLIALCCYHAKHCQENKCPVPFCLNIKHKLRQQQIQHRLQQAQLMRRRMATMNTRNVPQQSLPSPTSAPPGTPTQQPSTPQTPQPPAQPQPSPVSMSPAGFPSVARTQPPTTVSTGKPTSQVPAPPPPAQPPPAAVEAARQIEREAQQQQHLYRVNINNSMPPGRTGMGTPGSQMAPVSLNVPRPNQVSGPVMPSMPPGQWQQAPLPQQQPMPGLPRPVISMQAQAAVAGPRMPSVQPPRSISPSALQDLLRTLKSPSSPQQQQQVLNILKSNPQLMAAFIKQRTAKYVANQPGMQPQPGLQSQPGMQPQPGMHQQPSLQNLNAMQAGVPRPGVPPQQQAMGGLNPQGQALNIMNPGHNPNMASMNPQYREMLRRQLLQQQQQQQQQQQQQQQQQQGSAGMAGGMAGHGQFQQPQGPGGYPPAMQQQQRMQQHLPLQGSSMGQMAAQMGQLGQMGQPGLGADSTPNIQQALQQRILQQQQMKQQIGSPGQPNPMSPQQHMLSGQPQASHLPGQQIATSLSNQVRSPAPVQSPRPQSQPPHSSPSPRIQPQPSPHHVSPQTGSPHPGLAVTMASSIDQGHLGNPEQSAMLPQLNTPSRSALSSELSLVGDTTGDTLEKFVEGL

SMILES	IC50 (H3K27Ac) [µM]	IC50 (CREBBP) [nM]	IC50 (EP300) [nM]
COc1ccc(C2(C(=O)N3C[C@H](F)C[C@@H]3C(=O)Nc3cccc4[nH]ncc34)CCCCO2)cc1 (stereo partly drawn) [Example 43, (4R)-4-Fluoro-N-1H-indazol-4-yl-1-{[2-(4-methoxyphenyl)tetrahydro-2H-pyran-2-yl]carbonyl}-D-prolinamide]	6.45		
COc1ccc(C2(C(=O)N3CCC[C@@H]3C(=O)Nc3ncccn3)CCCC2)cc1 [Example 20, 1-{[1-(4-Methoxyphenyl)cyclopentyl]carbonyl}-N-pyrimidin-2-yl-D-prolinamide]	7.72		
COc1ccc(C2(C(=O)N3C[C@H](OC)C[C@@H]3C(=O)Nc3cccc4[nH]ncc34)CCCC2)cc1 [Example 6, (4R)—N-1H-Indazol-4-yl-4-methoxy-1-{[1-(4-methoxyphenyl)cyclopentyl]carbonyl}-D-prolinamide]	9.64		
COc1ccc(C2(C(=O)N3CCC[C@@H]3C(=O)Nc3cccc4cccnc34)CCCC2)cc1 [Example 14, 1-{[1-(4-Methoxyphenyl)cyclopentyl]carbonyl}-N-quinolin-8-yl-D-prolinamide]	6.67		
COc1ccc(C2(C(=O)N3CCC[C@@H]3C(=O)Nc3ccncc3)CCCC2)cc1 [Example 11, 1-{[1-(4-Methoxyphenyl)cyclopentyl]carbonyl}-N-pyridin-4-yl-D-prolinamide]	8.06		
O=C(O)c1ccc(C2(C(=O)N3CCC[C@@H]3C(=O)Nc3cccc4[nH]ncc34)CCCC2)cc1 [Example 4, 4-(1-{[(2R)-2-(1H-Indazol-4-ylcarbamoyl)pyrrolidin-1-yl]carbonyl}cyclopentyl)benzoic acid]	11.7		
COc1ccc(C2(C(=O)N3CCC[C@@H]3C(=O)Nc3ccccc3OC)CCCC2)cc1 [Example 10, N-(2-Methoxyphenyl)-1-{[1-(4-methoxyphenyl)cyclopentyl]carbonyl}-D-prolinamide]	6.11		
COc1ccc(C2(C(=O)N3C[S+]([O-])C[C@@H]3C(=O)Nc3cccc4[nH]ncc34)CCCC2)cc1 (stereo partly drawn) [Example 28b, (4S)—N-(1H-Indazol-4-yl)-3-{[1-(4-methoxyphenyl)cyclopentyl]carbonyl}-1,3-thiazolidin-4-carboxamide 1-oxide]	6.88		
COc1ccc(C2(C(=O)N3CCC[C@@H]3C(=O)Nc3ccccc3)CCCC2)cc1 [Example 8, 1-{[1-(4-Methoxyphenyl)cyclopentyl]carbonyl}-N-phenyl-D-prolinamide]	6.53		
COc1ccc(C2(C(=O)N3CCC[C@@H]3C(=O)Nc3cccc(C)c3)CCCC2)cc1 [Example 9, 1-{[1-(4-Methoxyphenyl)cyclopentyl]carbonyl}-N-(3-methylphenyl)-D-prolinamide]	8.45		
COc1ccc(C2(C(=O)N3C[C@@H](F)C[C@@H]3C(=O)Nc3cccc4[nH]ncc34)CCCC2)cc1 [Example 7, (4S)-4-Fluoro-N-1H-indazol-4-yl-1-{[1-(4-methoxyphenyl)cyclopentyl]carbonyl}-D-prolinamide]	8.75		
COc1ccc(C2(C(=O)N3CCCC3C(=O)Nc3cccc4c3cnn4C)CCCCC2)cc1 (stereo not drawn) [Example 3, 1-{[1-(4-Methoxyphenyl)cyclohexyl]carbonyl}-N-(1-methyl-1H-indazol-4-yl)prolinamide]	10.6		
COc1ccc(C2(C(=O)N3[C@H](C)CC[C@@H]3C(=O)Nc3cccc4[nH]ncc34)CCCC2)cc1 [Example 25, (5R)—N-1H-Indazol-4-yl-1-{[1-(4-methoxyphenyl)cyclopentyl]carbonyl}-5-methyl-D-prolinamide]	5.32		

Stronger by IC50 (H3K27Ac), values ahead:

IC50 (H3K27Ac) [µM]	IC50 (CREBBP) [nM]	IC50 (EP300) [nM]	SMILES
3.34			COc1ccc(C2(C(=O)N3CCC[C@@H]3C(=O)Nc3ccc4c(c3)CCC(=O)N4)CCCC2)cc1 [Example 18, l-{[1-(4-Methoxyphenyl)cyclopentyl]carbonyl}-N-(2-oxo-1,2,3,4-tetrahydroquinolin-6-yl)-D-prolinamide]
1.55	652	364	COc1ccc(C2(C(=O)N3C[C@](C)(O)C[C@@H]3C(=O)Nc3cccc4[nH]ncc34)CCCC2)cc1 [Example 31, (4R)-4-Hydroxy-N-1H-indazol-4-yl-1-{[1-(4-methoxyphenyl)cyclopentyl]carbonyl}-4-methyl-D-prolinamide]
2.5			COc1ccc(C2(C(=O)N3CCC[C@@H]3C(=O)Nc3cccc4[nH]cnc34)CCCC2)cc1 [Example 59]
0.709	237	213	COc1ccc(C2(C(=O)N3CCC[C@@H]3C(=O)Nc3ccc4[nH]ccc4c3)CCCC2)cc1 [Example 17, N-1H-Indol-5-yl-1-{[1-(4-methoxyphenyl)cyclopentyl]carbonyl}-D-prolinamide]
2.58			COc1ccc(C2(C(=O)N3CCC[C@@H]3C(=O)Nc3ccc(OCc4ccccc4)cc3)CCCC2)cc1 [Example 12, N-[4-(Benzyloxy)phenyl]-1-{[1-(4-methoxyphenyl)cyclopentyl]carbonyl}-D-prolinamide]
0.307	39	40	COc1ccc(C2(C(=O)N3CSC[C@@H]3C(=O)Nc3ccccc3C#N)CCCCC2)cc1 [Example 34, (4S)—N-(2-Cyanophenyl)-3-{[1-(4-methoxyphenyl)cyclohexyl]carbonyl}-1,3-thiazolidine-4-carboxamide]
2.41	678	397	COc1ccc(C2(C(=O)N3C[C@H](F)C[C@@H]3C(=O)Nc3ccc4c(n3)NC(=O)CO4)CCCCC2)cc1 [Example 67, (4R)-4-Fluoro-1-{[1-(4-methoxyphenyl)cyclohexyl]carbonyl}-N-(3-oxo-3,4-dihydro-2H-pyrido[3,2-b][1,4]oxazin-6-yl)-D-prolinamide]
0.458	36	130	COc1ccc(C2(C(=O)N3CCC[C@@H]3C(=O)Nc3ccc(O)c(Cl)c3)CCCC2)cc1 [Example 21, N-(3-Chloro-4-hydroxy-phenyl)-1-{[1-(4-methoxyphenyl)cyclopentyl]carbonyl}-D-prolinamide]
1.01	128	193	COc1ccc(C2(C(=O)N(C)CC(=O)Nc3cccc4[nH]ncc34)CCCCC2)cc1 [Example 2, N-[2-(1H-Indazol-4-ylamino)-2-oxoethyl]-1-(4-methoxyphenyl)-N-methylcyclohexanecarboxamide]
1.65			C#C[C@@]1(O)C[C@H](C(=O)Nc2ccccc2Cl)N(C(=O)C2(c3ccc(OC)cc3)CCCC2)C1 [Example 32, (4S)—N-(2-Chlorophenyl)-4-ethynyl-4-hydroxy-1-{[1-(4-methoxyphenyl)cyclopentyl]carbonyl}-D-prolinamide]
2.02			COc1ccc(C2(C(=O)N3CCC[C@@H]3C(=O)Nc3cccc4[nH]ncc34)CCC(F)(F)CC2)cc1 [Example 55]
3.99			COc1ccc(C2(C(=O)N3CCC[C@@H]3C(=O)Nc3cccc4ccccc34)CCCC2)cc1 [Example 13, 1-{[1-(4-Methoxyphenyl)cyclopentyl]carbonyl}-N-naphthalen-1-yl-D-prolinamide]
4.01			COc1ccc(C2(C(=O)N3C[C@H](F)C[C@@H]3C(=O)Nc3cccc4[nH]ncc34)CCCOC2)cc1 (stereo partly drawn) [Example 42, (4R)-4-Fluoro-N-1H-indazol-4-yl-1-{[3-(4-methoxyphenyl)tetrahydro-2H-pyran-3-yl]carbonyl}-D-prolinamide]
2.53			COc1ccc(C2(C(=O)N3CCCCC[C@@H]3C(=O)Nc3ccccc3C#N)CCCC2)cc1 [Example 27, (2R)—N-(2-Cyanophenyl)-1-{[1-(4-methoxyphenyl)cyclopentyl]carbonyl}azepan-2-carboxamide]
